Like-named read-outs stand apart in the source and are kept apart here.
Experiments:
[1] = tested on: SU-DHL-2; experiment: Cell Titer Glo viability assay, SU-DHL-2; format: cell-based; conditions: Homo sapiens; SU-DHL-2, DLBCL; single agent; 72 hours; read-out: Inhibition of Viability, EC50
Procedure: (§1) All procedures were performed at Gilead Sciences, Inc. in Branford, The compound of formula (I), cyclophosphamide, doxorubicin and vincristine sulfate were dissolved in DMSO to prepare stock solutions that were serially diluted three-fold in DMSO in a 96 well plate format at 1000× so the final starting assay concentrations tested would be 10 μM, 200 μM, 10 μM, and 1 μM respectively, for each compound. Compound plates were diluted 1:100 in RPMI without serum or additives creating a 10× stock. Cells were seeded into a 96-well plate at 10,000-20,000 cells per well in 100 μl of growth media appropriate to the cell line supplemented with 100 U/L penicillin-streptomycin. OCI-Ly3, OCI-Ly4 and OCI-Ly7 were grown in Iscove's+20% FBS, OCI-Ly19 was grown in alphaMEM+20% FBS, and all other cell lines were grown in RPMI+10% FBS. To each well, 11 μl of 10× compound was added in a final concentration of 0.1% DMSO and cells were incubated at 37° C. in 5% CO2 for 72 hours. Cell viability was assessed with Cell Titer Glo (Promega, Madison, Wis.) following the manufacturer's protocol on an Envision plate reader (Perkin Elmer, Waltham, Mass.). EC50 values were determined using a four parameter variable slope model with GraphPad Prism 6.0 software. All EC50 values represent mean values of from duplicate dose response curves.

[2] = tested on: SU-DHL-6; experiment: Cell Titer Glo viability assay, SU-DHL-6; format: cell-based; conditions: Homo sapiens; SU-DHL-6, DLBCL; single agent; 72 hours; read-out: Inhibition of Viability, EC50
Procedure: as §1

[3] = tested on: Karpas 422; experiment: Cell Titer Glo viability assay, Karpas 422; format: cell-based; conditions: Homo sapiens; Karpas 422, DLBCL; single agent; 72 hours; read-out: Inhibition of Viability, EC50
Procedure: as §1

[4] = tested on: OCI-LY3; experiment: Cell Titer Glo viability assay, OCI-LY3; format: cell-based; conditions: Homo sapiens; OCI-LY3, DLBCL; single agent; 72 hours; read-out: Inhibition of Viability, EC50
Procedure: as §1

[5] = tested on: OCI-LY4; experiment: Cell Titer Glo viability assay, OCI-LY4; format: cell-based; conditions: OCI-LY4, DLBCL; single agent; 72 hours; read-out: Inhibition of Viability, EC50
Procedure: as §1

[6] = tested on: OCI-LY19; experiment: Cell Titer Glo viability assay, OCI-LY19; format: cell-based; conditions: Homo sapiens; OCI-LY19, DLBCL; single agent; 72 hours; read-out: Inhibition of Viability, EC50
Procedure: as §1

[7] = tested on: Mino; experiment: Cell Titer Glo viability assay, Mino; format: cell-based; conditions: Homo sapiens; Mino, MCL; single agent; 72 hours; read-out: Inhibition of Viability, EC50
Procedure: as §1

[8] = tested on: WSU-FSCCL; experiment: Cell Titer Glo viability assay, WSU-FSCCL; format: cell-based; conditions: WSU-FSCCL, FL; single agent; 72 hours; read-out: Inhibition of Viability, EC50
Procedure: as §1

[9] = tested on: WSU-NHL; experiment: Cell Titer Glo viability assay, WSU-NHL; format: cell-based; conditions: Homo sapiens, FL, single agent, 72 hours, read-out: Inhibition of Viability, EC50
Procedure: as §1

[10] = tested on: 10 diffuse large B-cell lymphoma (DLBCL), 4 multiple myeloma (MM), 2 follicular lymphoma (FL), and 1 mantle cell lymphoma (MCL) cell lines; experiment: Cell Titer Glo viability assay, summary over all cell lines tested; format: cell-based; conditions: at concentrations <3000 nM
Procedure: as §1

[11] = Plasma levels in SU-DHL-10 xenograft study; format: in vivo, mouse
Procedure: On the 16th day post-tumor implantation, animals with established tumors (n=9 animals per group) were treated for 3 days by oral gavage with either vehicle or Entospletinib at 75 mg/kg or 25 mg/kg twice daily (BID). […] This dose level is designated 75/50 mg/kg.
Efficacy was evaluated by tumor volume measurements. Plasma levels of Entospletinib and vincristine were evaluated on the third day of dosing Entospletinib (Day 19) and the last day of dosing (Day 32). Tolerability was evaluated by daily observations, body weight (3 times per week) and circulating blood cell counts at the end of the study.

[12] = Cell Titer Glo viability assay, summary over all cell lines tested; format: cell-based; conditions: B-cell; range over the 17 cell lines of Table 1; read-out: EC50 values to inhibit cell viability, range over cell lines
Procedure: as §1

[13] = tested on: DHL-10; experiment: Cell Titer Glo viability assay, DHL-10, alone or with compound of Formula I (Example 3)
Procedure: All procedures were performed at Gilead Sciences, Inc. in Branford, Conn. […] Compound plates were diluted 1:100 in RPMI without serum or additives but containing either 1% DMSO or 3 μM of the compound of Formula I creating a 10× stock. The DLBCL cell line, DHL-10 was plated at 10,000 cells per well in RPMI supplemented with 10% FBS and 100 U/L penicillin-streptomycin. To each well containing cells, 11 μl of 10× compound mixture in serum-free media was added in a final concentration of 0.2% DMSO and cells were incubated at 37° C. in 5% CO2 for 72 hours. Cell viability was assessed using Cell Titer Glo (CTG, Promega, Madison, Wis.) following the manufacturer's protocol on an Envision plate reader (Perkin Elmer, Waltham, Mass.). CTG signals were recorded for individual compound treatments and combinations. EC50 values were determined using a four parameter variable slope model with GraphPad Prism 6.0 software.

[14] = cited from earlier work

SMILES | EC50 [1] [nM] | EC50 [2] [nM] | EC50 [3] [nM] | EC50 [4] [nM] | EC50 [5] [nM] | EC50 [6] [nM] | EC50 [7] [nM] | EC50 [8] [nM] | EC50 [9] [nM] | inhibition of cell viability in any of the cell lines tested [10] | plasma concentrations on the third day of dosing ([11]; 75 mg/kg BID) | plasma concentrations at the end of study at Cmin (trough) ([11]; 25 and 50 mg/kg BID, respectively, compared with mouse whole blood values for inhibition of SYK) | EC50 [12] [nM] | EC50 ([13]; Homo sapiens, 72 h, read-out: Inhibition of cell viability EC50, No Compound of Formula I) [nM] | EC50 ([13]; read-out: Inhibition of cell viability EC50, +300 nM Compound of Formula I, DHL-10, in combination with 300 nM compound of Formula I, 72 hours) [nM] | solubility ([14]; 95% ethanol) | solubility ([14]; methanol) | solubility ([14]; water)
c1cn2cc(-c3ccc4cn[nH]c4c3)nc(Nc3ccc(N4CCOCC4)cc3)c2n1 [Compound of Formula I, 6-(1H-indazol-6-yl)-N-(4-morpholinophenyl)imidazo[1,2-a]pyrazin-8-amine] | > 3000 | > 3000 | > 3000 | > 3000 | > 3000 | > 3000 | > 3000 | > 3000 | > 3000 | did not show inhibition cell viability | higher than planned plasma concentrations | exceed the in vitro pervanadate-stimulated mouse whole blood EC50 and EC50 values for inhibition of SYK |  |  |  |  |  | 
CC[C@]1(O)C[C@H]2CN(CCc3c([nH]c4ccccc34)[C@@](C(=O)OC)(c3cc4c(cc3OC)N(C=O)[C@H]3[C@@](O)(C(=O)OC)[C@H](OC(C)=O)[C@]5(CC)C=CCN6CC[C@]43[C@@H]65)C2)C1 [Vincristine, vincristine] | 65 | 12 | 62 | 12 | < 1 | 1.2 | 42 | 58 | 39 |  |  |  | ≤ 103 | 14.1 | 3.5 | only slightly soluble | soluble | freely soluble

— patent publication US10080756B2, “Combination methods for treating cancers” (Gilead Sciences, Inc., priority 2014, dated 2018)
